Reference: patent publication US11180487B2, “Substituted cyanoindoline derivatives as NIK inhibitors” (Janssen Pharmaceutica NV, priority 2016, dated 2021)
Read-outs that look alike come from different tables or passages of the source.

Key:
[1] = biological target: recombinant human NF-kappaB-inducing kinase (NIK/MAP3K14) (Homo sapiens, UniProt Q99558); assay: Inhibition of auto-phosphorylation of recombinant human NIK/MAP3K14 activity (AlphaScreen), Biological Assay A; type: biochemical; settings: averaged values over all measurements on all batches
Procedure, shortened: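 AlphaScreen detection with anti-phospho-IKK Ser176/180 antibody plus Protein A acceptor/glutathione donor beads after 1 h, 25 °C reaction of 0.2 nM GST-tagged kinase, 25 μM ATP and compound. Buffer: 50 mM Tris pH 7.5, MgCl2, EGTA, DTT, vanadate; 1% DMSO. IC50 fitted sigmoidally to % inhibition.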

[2] = tested on: KMS12-BM (NIK WT) multiple myeloma cells; assay: Antiproliferative activity on KMS12-BM multiple myeloma cells (CellTiter-Glo, 96 hr), Biological Assay C; type: cell-based, human; settings: averaged values, read-out: KMS-12 Proliferation inhibition (IC50 (nM))
Procedure, shortened: (§1)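 Growth read-out was CellTiter-Glo luminescence after 96 h compound exposure, given as percent of no-drug control after subtracting a blank of cells read at dosing. Compounds ran as 9-point serial 1:3 dilutions in 0.3% DMSO, duplicate wells, on JJN-3 (15000/well) or KMS12-BM (20000/well) cells in RPMI 1640/10% FCS.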

[3] = tested on: P-IKKα levels in L363 (NIK translocated multiple myeloma) cells; assay: Effect of compounds on P-IKKα levels in L363 cells (Mesoscale sandwich immuno-assay), Biological Assay B; type: cell-based, human; settings: 2 hr treatment, averaged values, read-out: Inhibition of pIKKα_L-363 (IC50 (nM))
Procedure, shortened: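 P-IKKα in lysates quantified by Mesoscale sandwich immunoassay after 2 h compound exposure in 1% DMSO, duplicate wells, 8-point 1:3 series. Human L363 cells had been preincubated 24 h with BAFF (1 μg/ml stock). Blank (10 μM ADS125117) subtracted; IC50 fitted sigmoidally to % inhibition of control.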

[4] = tested on: JJN-3 (NIK translocated) multiple myeloma cells; assay: Antiproliferative activity on JJN-3 multiple myeloma cells (CellTiter-Glo, 96 hr), Biological Assay C; type: cell-based, human; settings: JJN-3 (NIK translocated) cells, averaged values, read-out: JJN-3 Proliferation inhibition (IC50 (nM))
Procedure, shortened: as §1

Sequence of recombinant human NF-kappaB-inducing kinase (NIK/MAP3K14) (Q99558 whole entry): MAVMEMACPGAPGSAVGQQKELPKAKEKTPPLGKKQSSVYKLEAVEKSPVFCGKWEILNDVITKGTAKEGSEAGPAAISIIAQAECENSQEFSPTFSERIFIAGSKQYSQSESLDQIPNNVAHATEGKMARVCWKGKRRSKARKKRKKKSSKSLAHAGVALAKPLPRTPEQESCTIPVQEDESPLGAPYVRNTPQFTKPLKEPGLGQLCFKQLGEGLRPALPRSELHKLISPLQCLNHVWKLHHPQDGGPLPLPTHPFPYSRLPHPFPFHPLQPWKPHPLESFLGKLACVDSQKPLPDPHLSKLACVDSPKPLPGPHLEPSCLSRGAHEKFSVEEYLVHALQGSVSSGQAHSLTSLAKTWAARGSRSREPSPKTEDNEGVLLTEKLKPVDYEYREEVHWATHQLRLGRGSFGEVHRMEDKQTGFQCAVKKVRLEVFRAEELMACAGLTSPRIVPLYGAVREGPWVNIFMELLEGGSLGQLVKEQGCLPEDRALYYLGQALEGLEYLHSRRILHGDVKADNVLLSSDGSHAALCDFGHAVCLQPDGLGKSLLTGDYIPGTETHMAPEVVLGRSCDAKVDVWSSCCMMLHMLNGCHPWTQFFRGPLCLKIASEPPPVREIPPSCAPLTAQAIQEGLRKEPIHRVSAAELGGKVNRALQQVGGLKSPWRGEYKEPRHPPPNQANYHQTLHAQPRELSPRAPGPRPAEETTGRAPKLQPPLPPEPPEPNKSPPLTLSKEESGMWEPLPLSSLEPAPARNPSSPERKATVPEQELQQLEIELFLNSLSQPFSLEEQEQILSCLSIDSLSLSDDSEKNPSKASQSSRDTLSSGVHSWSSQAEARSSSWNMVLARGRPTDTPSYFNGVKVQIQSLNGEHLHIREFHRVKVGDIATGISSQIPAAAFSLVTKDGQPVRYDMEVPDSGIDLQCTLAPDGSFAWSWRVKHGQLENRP

Structure (SMILES)	IC50 [1] [nM]	melting point [°C]	IC50 ([2]; Homo sapiens, KMS-12-BM, 96 h) [nM]	IC50 ([3]; Homo sapiens, L-363, 2 h) [nM]	IC50 ([4]; Homo sapiens, JJN-3, 96 h) [nM]	IC50 [2] [nM]	IC50 [4] [nM]	IC50 [3] [nM]
Cc1ccc(C(=O)NCCN2CCOCC2)cc1Nc1nccc(-c2cc(C#N)c3c(c2)[C@@](C)(CO)CN3)n1 [Compound 159]	5.5	140	> 10000	20.4	4790	–	–	–
Cc1ccc(C(=O)N(C)C)cc1Nc1nccc(-c2cc(C#N)c3c(c2)[C@@](C)(CO)CN3)n1 [Compound 160]	11.2	206	> 10000	64.6	4790	–	–	–
CNC(=O)c1cc(Nc2nccc(-c3cc(C#N)c4c(c3)[C@@](C)(CO)CN4)n2)c(F)cc1F [Compound 165]	3.6	224	~5250	6	1120	–	–	–
Cc1cc(CCCN)c(C#N)cc1Nc1nccc(-c2cc(C#N)c3c(c2)[C@@](C)(CO)CN3)n1 [Compound 170]	1	207	~4680	2.3	81	–	–	–
Cc1cc(C#CCN)c(C#N)cc1Nc1nccc(-c2cc(C#N)c3c(c2)[C@@](C)(CO)CN3)n1 [Compound 171]	1.1	249	> 10000	34.7	955	–	–	–
CCC(=O)NCCCc1cc(C)c(Nc2nccc(-c3cc(C#N)c4c(c3)[C@@](C)(CO)CN4)n2)cc1C#N [Compound 172]	4.8	193	> 10000	2.4	65	–	–	–
Cc1cc(CCN2CC(F)C2)c(C#N)cc1Nc1nccc(-c2cc(C#N)c3c(c2)[C@@](C)(CO)CN3)n1 [Compound 174]	3.5	211	> 10000	2	71	–	–	–
Cc1cc(C2CCN(C)CC2)c(C#N)cc1Nc1nccc(-c2cc(C#N)c3c(c2)[C@@](C)(CO)CN3)n1 [Compound 175]	1.8	226	~191	2.8	27	–	–	–
Cc1cc(C2CCCN(C)C2)c(C#N)cc1Nc1nccc(-c2cc(C#N)c3c(c2)[C@@](C)(CO)CN3)n1 (some centres unmarked) [Compound 177]	3.2	222	–	1.2	–	~246	14	–
Cc1cc(C2CCCN(C)C2)c(C#N)cc1Nc1nccc(-c2cc(C#N)c3c(c2)[C@@](C)(CO)CN3)n1 (some centres unmarked) [Compound 179]	2.2	188	–	–	–	1290	58	1.4
Cc1cc(F)c(C(=O)NCC2COC2)cc1Nc1nccc(-c2cc(C#N)c3c(c2)[C@@](C)(CO)CN3)n1 [Compound 183]	9.1	209	> 10000	7.1	501	–	–	–
C[C@]1(CO)CNc2c(C#N)cc(-c3ccnc(Nc4cc(C#N)ccc4CCCCN)n3)cc21 [Compound 184]	2.8	134	> 10000	19.1	178	–	–	–
Cc1cc(-c2cnn(C)c2)c(C#N)cc1Nc1nccc(-c2cc(C#N)c3c(c2)[C@@](C)(CO)CN3)n1 [Compound 188]	2.6	190	> 10000	5.4	54	–	–	–
Cc1ccc(C2CCN(C)CC2)cc1Nc1nccc(-c2cc(C#N)c3c(c2)[C@@](C)(CO)CN3)n1 [Compound 192]	72.4	250	537	2950	1180	–	–	–
Cc1c(CO)cc(C#N)cc1Nc1nccc(-c2cc(C#N)c3c(c2)[C@@](C)(CO)CN3)n1 [Compound 193]	1.6	188	> 10000	1.7	22	–	–	–
Cc1c(CN2CC(C)OC(C)C2)cc(C#N)cc1Nc1nccc(-c2cc(C#N)c3c(c2)[C@@](C)(CO)CN3)n1 (some centres unmarked) [Compound 194]	3.6	193	479	1.4	17	–	–	–
Cc1c(CN2CC(F)C2)cc(C#N)cc1Nc1nccc(-c2cc(C#N)c3c(c2)[C@@](C)(CO)CN3)n1 [Compound 195]	6.2	210	~3720	1.9	30	–	–	–
Cc1c(CN2CC(F)(F)C2)cc(C#N)cc1Nc1nccc(-c2cc(C#N)c3c(c2)[C@@](C)(CO)CN3)n1 [Compound 196]	7.8	240	> 10000	1	14	–	–	–
Cc1c(CN2CC(C)OC(C)C2)cccc1Nc1nccc(-c2cc(C#N)c3c(c2)[C@@](C)(CO)CN3)n1 (some centres unmarked) [Compound 197]	6	223	~240	4.8	33	–	–	–
[2H]C([2H])(c1cccc(Nc2nccc(-c3cc(C#N)c4c(c3)[C@@](C)(CO)CN4)n2)c1C)N1CC(C)OC(C)C1 (some centres unmarked) [Compound 198]	4.6	222	~550	5.6	63	–	–	–
Cc1c(Nc2nccc(-c3cc(C#N)c4c(c3)[C@@](C)(CO)CN4)n2)cccc1C(=O)N1CC(C)OC(C)C1 (some centres unmarked) [Compound 199]	6.9	170	> 10000	7.4	76	–	–	–
COC(=O)c1cc(C#N)cc(Nc2nccc(-c3cc(C#N)c4c(c3)[C@@](C)(CO)CN4)n2)c1C [Compound 200]	1.7	260	> 10000	~0.66	41	–	–	–
